Consider 67 molecules from patent US10940139B2, “Compounds that interact with the Ras superfamily for the treatment of cancers, inflammatory diseases, rasopathies, and fibrotic disease” (Shy Therapeutics LLC, priority 2017, dated 2021).

The IC50 is the concentration that inhibits the measured activity by half. A higher IC50 goes with lower potency. What is called inhibition is the relative decrease from the control value, in per cent. A high value points to a response far below the control.

SMILES strings stand for the structures.

For one experiment, the system named is MIA-PACA2 pancreatic cancer cell lines. Nature of the experiment: Cell proliferation assay (CellTiter 96 AQueous One). Type of experiment: cell-based. To be noted: Homo sapiens, MIA PaCa-2; MIA-PACA2, same assay as the % inhibition (standard conditions).
As to `O=C(CN1CCN(c2nc(-c3ccccn3)nc3sc(-c4ccccc4)cc23)CC1)N1CCCC1` [drawing 1606], the IC50 was above 1000 nM.

`CC1CN(c2ccccc2)CCN1C(=O)c1csc2c(O)nc(-c3ccccn3)nc12` (stereo not shown) [drawing 1654]: the 50% inhibitory concentration (IC50) is 501 to 1000 nM.

`Oc1nc(-c2ccccn2)nc2c(-c3cc(Cl)cc(Cl)c3)csc12` [drawing 1724] registered a 50% inhibitory concentration (IC50) of 100 to 500 nM.

The experiment is the same for the next values; noted with them: Homo sapiens, MIA PaCa-2; at 30 μM, MIA-PACA2.
As for `O=C(CN1CCN(c2nc(-c3ccccn3)nc3sc(-c4ccccc4)cc23)CC1)N1CCCC1` [drawing 1606], the inhibition at 30 µM lay in the range of 76 to 100%.

As for `COCCOCCN(C)C(=O)c1csc2c(O)nc(-c3ccccn3)nc12` [drawing 1575], the inhibition at 30 µM lay in the range of 25 to 50%.

In turn, `O=C(COc1ccccc1)Nc1nnc(-c2ccccn2)[nH]1` [drawing 1456] came in with an inhibition at 30 µM of 25 to 50%.

Consider `CNS(=O)(=O)CCCNC(=O)c1csc2nc(-c3ccccn3)nc(N3CCOCC3)c12` [drawing 1684], for which the inhibition at 30 µM was 76 to 100%.

In the case of `O=C(COc1ccccc1)N1CCCc2c(O)nc(-c3ccccn3)nc21` [drawing 1543], the inhibition at 30 µM is 76 to 100%.

Molecule `O=C(CCc1c[nH]c2ccccc12)Nc1nnc(-c2ccccn2)[nH]1` [drawing 1400] returned an inhibition at 30 µM of 51 to 75%.

Consider `O=C(c1csc2c(O)nc(-c3ccccn3)nc12)N1CCN(c2ccc(F)cc2F)CC1` [drawing 1653], for which the inhibition at 30 µM was 76 to 100%.

Consider `CN(CC(=O)N1CCOCC1)c1nc(-c2ccccn2)nc2scc(-c3ccccc3)c12` [drawing 1609], for which the inhibition at 30 µM fell in the range of 51 to 75%.

For the molecule `CCN(CC)CCC(C)Nc1nc(-c2ccccn2)nc2sccc12` (stereo not shown) [drawing 1592], the inhibition at 30 µM is 76 to 100%.

Molecule `N#Cc1ccc(N2CCN(C(=O)c3csc4c(O)nc(-c5ccccn5)nc34)CC2)cc1` [drawing 1650] displayed an inhibition at 30 µM of 25 to 50%.

Regarding `CN1CCN(c2nc(-c3ccccn3)nc3scc(C(=O)NCCc4cnc(O)nc4)c23)CC1` [drawing 1775], the inhibition at 30 µM was 25 to 50%.

As to `O=C(Cc1ccc(F)cc1)Nc1nnc(-c2ccccn2)[nH]1` [drawing 1427], the inhibition at 30 µM lay in the range of 51 to 75%.

For the molecule `CC1CN(c2ccccc2)CCN1C(=O)c1csc2c(O)nc(-c3ccccn3)nc12` (stereo not shown) [drawing 1654], the inhibition at 30 µM was in the range of 76 to 100%.

Take `O=C(CCCc1cccnc1)N1CCCc2c(O)nc(-c3ccccn3)nc21` [drawing 1556]: the inhibition at 30 µM lay in the range of 76 to 100%.

`Oc1nc(-c2ccccn2)nc2c(-c3cc(Cl)cc(Cl)c3)csc12` [drawing 1724] showed an inhibition at 30 µM of 76 to 100%.

A further experiment has as its system MAPK phosphorylation in PANC-1 pancreatic cancer cell line. The experiment can be described thus: MAPK cell-based phosphorylation assay (cell-direct ELISA, EGF stimulation). The note with it: Homo sapiens, * = tested at 10 μM. The protocol: Cell lines: Tumor-derived pancreatic cancer cell lines PANC-1 were purchased from ATCC and were maintained according to ATCC recommendation.
Method: Cells were plated at 7500 cells/well density in 96-wells plate, starved over night, and the small molecules to be tested were added to the cells in the final concentration of 30 μM with 0.3% DMSO for 6 hours incubation at 37° C. For IC50 value determination, serial dilutions of compounds were added to cells under the same conditions. Next, cells were stimulated with 1.5 ng/ml EGF for 15 min. followed by cell fixation with 4% Formaldehyde in PBS at RT for 20 min. Phosphorylation level of MAPK was determined by Cell-direct ELISA.
Cell-direct ELISA: For each well, cells were permeabilized with PBS-Triton 0.1%, quenched with H2O2 0.6% in PBS-Triton 0.1%, and probed with anti-phospho-MAPK antibodies (R&D Systems) followed by HRP-conjugated secondary antibody (Jackson Immunoresearch, West Grove, Pa.). Next, a solution 50 μM of the fluorescent substrate AmpliFlu Red (Sigma) was added and incubated at RT for 20 min. At the end of the incubation time, fluorescence was measured at 595 nm on a microplate reader (AF2200; Eppendorf, Inc., Hamburg, Germany).
The molecule `O=c1[nH]c(-c2ccccn2)nc2c([C@@H]3O[C@H](CO)[C@@H](O)[C@H]3O)csc12` [drawing 1287] displayed an inhibition at 10 µM of 1 to 25%.

In turn, `COCCNc1nc(-c2ccccn2)nc2sc(-c3ccccc3)c(-c3ccccn3)c12` [drawing 1380] yielded an inhibition at 10 µM of 0%.

As for `CN1CCN(c2nc(-c3ccccn3)nc3scc(C(=O)NCCc4cnc(O)nc4)c23)CC1` [drawing 1236], the inhibition at 10 µM is 25 to 50%.

For `COc1nc(-c2ccccn2)nc(Oc2cccc(C(F)(F)F)c2)c1OC` [drawing 1312], at 10 µM the inhibition was 0%.

Molecule `COC(=O)c1c(C)sc2c(N)nc(-c3ccccn3)nc12` [drawing 1260] registered an inhibition at 10 µM of 25 to 50%.

Regarding `COc1cnc(CNC(=O)c2csc3nc(-c4ccccn4)nc(N)c23)[nH]c1=O` [drawing 1277], the inhibition at 10 µM is 25 to 50%.

The molecule `COc1ccc(-c2c(-c3ccccc3)sc3c(O)nc(-c4nccn4C)nc23)cn1` [drawing 1353] gave an inhibition at 10 µM of 51 to 75%.

For `O=C(NCCc1ccnc(O)n1)c1csc2nc(-c3ccccn3)nc(N3CCOCC3)c12` [drawing 1235], the inhibition at 10 µM is 1 to 25%.

Molecule `COc1ccc(-c2c(C)sc3c(O)nc(-c4nccn4C)nc23)cn1` [drawing 1361] had an inhibition at 10 µM of 25 to 50%.

Molecule `COCCCNc1nc(-c2nccn2C)nc2sc(-c3ccccc3)c(-c3ccccc3)c12` [drawing 1330] showed an inhibition at 10 µM of 76 to 100%.

In turn, `Oc1nc(-c2ccncn2)nc2c(-c3cccc(C(F)(F)F)c3)csc12` [drawing 1367] showed an inhibition at 10 µM of 1 to 25%.

Molecule `COCCNc1nc(-c2nccn2C)nc2sc(-c3ccc(OC)cc3)c(-c3ccccc3)c12` [drawing 1357] had an inhibition at 10 µM of 51 to 75%.

In turn, `CN(C)CCOc1cccc(-c2csc3c(O)nc(-c4ccccn4)nc23)c1` [drawing 1253] displayed an inhibition at 10 µM of 76 to 100%.

With `COc1ccccc1-c1csc2c(O)nc(-c3ccccn3)nc12` [drawing 1209], the inhibition at 10 µM lay in the range of 1 to 25%.

The molecule `Cc1sc2c(O)nc(-c3ccccn3)nc2c1C(=O)N1CCN(Cc2cccc(O)c2)CC1` [drawing 1271] yielded an inhibition at 10 µM of 25 to 50%.

On to `CC(O)CNc1nc(-c2nccn2C)nc2sc(-c3ccccc3)c(-c3ccccc3)c12` (stereo not shown) [drawing 1329], for which the inhibition at 10 µM was in the range of 1 to 25%.

Consider `Cc1sc2c(O)nc(-c3ccccn3)nc2c1-c1ccccc1` [drawing 1241], for which the inhibition at 10 µM fell in the range of 76 to 100%.

For the molecule `Oc1nc(-c2ccccn2)nc2c(C3CCCC3)csc12` [drawing 1256], the inhibition at 10 µM fell in the range of 76 to 100%.

The molecule `COc1nc(-c2ccccn2)nc(Oc2cccc(C(F)(F)F)c2)c1O` [drawing 1325] registered an inhibition at 10 µM of 1 to 25%.

The molecule `COc1cc(C)c(-c2csc3c(O)nc(-c4ccccn4)nc23)cc1C` [drawing 1208] registered an inhibition at 10 µM of 1 to 25%.

In the case of `Cn1cnc(-c2nc(O)c3sc(-c4ccncc4)c(-c4ccccc4)c3n2)c1` [drawing 1309], the inhibition at 10 µM is 0%.

Consider `Cc1sc2c(O)nc(-c3nccn3C)nc2c1-c1cccc(C(F)(F)F)c1` [drawing 1359], for which the inhibition at 10 µM was in the range of 1 to 25%.

`Oc1nc(-c2ccccn2)nc2c(-c3ccccc3OC3CCCCC3)csc12` [drawing 1205] registered an inhibition at 10 µM of 1 to 25%.

Turning to `COc1cc(-c2csc3c(O)nc(-c4ccccn4)nc23)cnc1C(F)(F)F` [drawing 1222], the inhibition at 10 µM was 1 to 25%.

As to `Nc1nc(-c2ccccn2)nc2c(Br)csc12` [drawing 1229], the inhibition at 10 µM was in the range of 25 to 50%.

As to `Oc1nc(-c2ccccn2)nc2c(-c3ccc(C4CCC4)cc3)csc12` [drawing 1204], the inhibition at 10 µM fell in the range of 51 to 75%.

Consider `COCCNc1nc(-c2cn(C)cn2)nc2sc(-c3ccncc3)c(-c3ccccc3)c12` [drawing 1290], for which at 10 µM the inhibition was 0%.

Molecule `Cc1c(Br)sc2c(O)nc(-c3ccccn3)nc12` [drawing 1248] displayed an inhibition at 10 µM of 1 to 25%.

The molecule `Cc1sc2c(O)nc(-c3nccn3C)nc2c1-c1ccc(F)cc1F` [drawing 1381] returned an inhibition at 10 µM of 0%.

The molecule `Cn1ccnc1-c1nc(NCCCO)c2c(-c3ccccc3)c(-c3ccccc3)sc2n1` [drawing 1339] registered an inhibition at 10 µM of 1 to 25%.

`Cn1ccnc1-c1nc(NCCOC2CC2)c2c(-c3ccccc3)c(-c3ccccc3)sc2n1` [drawing 1336] came in with an inhibition at 10 µM of 76 to 100%.

`COCC(C)Nc1nc(-c2nccn2C)nc2sc(-c3ccccc3)c(-c3ccccc3)c12` (stereo not shown) [drawing 1337] came in with an inhibition at 10 µM of 76 to 100%.

In turn, `Cc1cnccc1-c1csc2c(O)nc(-c3ccccn3)nc12` [drawing 1225] registered an inhibition at 10 µM of 1 to 25%.

The same experiment, now with this note: Homo sapiens, at 30 μM.
Regarding `Brc1csc2nc(-c3ccccn3)nc(N3CCOCC3)c12` [drawing 1079], the inhibition at 30 µM lay within 1 to 25%.

With `COCCNc1nc(-c2ccccn2)nc2scc(-c3ccccc3)c12` [drawing 1108], the inhibition at 30 µM was in the range of 76 to 100%.

Consider `COc1cc(CCN(C)C(=O)c2csc3nc(-c4ccccn4)nc(N4CCOCC4)c23)ccn1` [drawing 1155], for which the inhibition at 30 µM fell in the range of 1 to 25%.

`O=C(Nc1nnc(-c2ccccn2)[nH]1)c1ccc(CN2C(=O)CCC2=O)cc1` [drawing 1004] yielded an inhibition at 30 µM of 1 to 25%.

In turn, `CC(C)c1nc(CC(=O)Nc2nnc(-c3ccccn3)[nH]2)cs1` [drawing 1003] registered an inhibition at 30 µM of 1 to 25%.

`COC(=O)C(C)CN(Cc1cc(Br)ccc1[N+](=O)[O-])C1CC1` (stereo not shown) [drawing 1054]: the inhibition at 30 µM lay within 1 to 25%.

The molecule `O=C(Nc1nnc(-c2ccccn2)[nH]1)c1ccc2ccccc2n1` [drawing 1002] returned an inhibition at 30 µM of 1 to 25%.

For `c1ccc(-c2csc3nc(-c4ccccn4)nc(NN4CCOCC4)c23)cc1` [drawing 1106], the inhibition at 30 µM was 1 to 25%.

The molecule `COCCCCNC(=O)c1csc2nc(-c3ccccn3)nc(N3CCOCC3)c12` [drawing 1156] gave an inhibition at 30 µM of 1 to 25%.

`O=C(Nc1nnc(-c2ccccn2)[nH]1)c1ccc2c(c1)CCO2` [drawing 995] had an inhibition at 30 µM of 1 to 25%.

Turning to `CON(C)c1nc(-c2ccccn2)nc2scc(-c3ccccc3)c12` [drawing 1095], the inhibition at 30 µM fell in the range of 25 to 50%.

Molecule `O=C(c1ccccn1)N1CCCc2c(O)nc(-c3ccccn3)nc21` [drawing 1062] registered an inhibition at 30 µM of 1 to 25%.

As for `Nc1nc(-c2ccccn2)nc2scc(-c3ccccc3)c12` [drawing 1181], the inhibition at 30 µM lay within 1 to 25%.

As for `COc1cc(COCC(=O)Nc2ccnc(-c3ccccn3)n2)ccn1` [drawing 1172], the inhibition at 30 µM is 25 to 50%.

`O=C(CCNC(=O)c1ccco1)Nc1nnc(-c2ccccn2)[nH]1` [drawing 1011] had an inhibition at 30 µM of 1 to 25%.

`COc1ccc(CCC(=O)Nc2nnc(-c3ccccn3)[nH]2)cc1F` [drawing 994]: the inhibition at 30 µM was in the range of 51 to 75%.

`O=C(c1csc2c(O)nc(-c3ccccn3)nc12)N1CCN(c2cccc(F)c2)CC1` [drawing 1137] displayed an inhibition at 30 µM of 1 to 25%.

As for `O=C(c1csc2c(O)nc(-c3ccccn3)nc12)N1CCOC(c2ccc(F)cc2)C1` (stereo not shown) [drawing 1134], the inhibition at 30 µM fell in the range of 1 to 25%.

The molecule `CC(C)(C)c1nc(C(=O)Nc2nnc(-c3ccccn3)[nH]2)cs1` [drawing 1023] had an inhibition at 30 µM of 1 to 25%.
